Source: US20260248872A1, “WITHANIA SOMNIFERA COMPOSITION FOR IMPROVING MEMORY AND COGNITION” (ARJUNA NATURAL PRIVATE LIMITED, priority 2023, published 2026)

Legend:
Type in all cases: in vivo, rat
male SD rats [1] = experiment: Elevated plus maze, transfer latency, scopolamine-induced amnesia; conditions: scopolamine 0.6 mg/kg i.p., Ashwagandha extract 100 mg/kg, Piracetam 200 mg/kg, 10 days, Mean ± SEM (n = 6)
Experimental: (§1) Twenty-four male SD rats were divided into four groups comprising of 6 rats in each group. The animals were treated as per the following details: • Group 1: Normal control (0.5% Polysorbate 80; 10 ml/kg) • Group 2: Untreated control (Scopolamine; 0.6 mg/kg i.p.) • Group 3: Piracetam—200 mg/kg+Scopolamine 0.6 mg/kg i.p. • Group 4: Ashwagandha extract (Sample 4)—100 mg/kg+Scopolamine 0.6 mg/kg i.p.
(§2) The vehicle/extract/standard was administered daily for 10 consecutive days. Habituation to swimming was conducted on day 6 of the experiment. Scopolamine was injected 30 minutes after the vehicle/extract/standard to the designated groups. The following behavioural test was conducted at the end of the treatment by using Elevated plus maze apparatus, Y maze model and Cooks pole climbing method.
The elevated plus-maze consists of two open arms and two closed arms (50×10×40 cm each) were elevated to a height of 50 cm. The rats were placed individually at the end of an open arm facing away from the central platform, and the time taken by them to move from there to either of the close arm transfer latency was recorded. […] The rats were allowed to explore the maze for another 10 seconds and then return to the home cage. […] On the 10th day Standard and test substances were administered orally 30 mins before scopolamine injection transfer latency was recorded.

male SD rats [2] = experiment: Y-Maze model, scopolamine-induced amnesia; conditions: scopolamine 0.6 mg/kg i.p., Ashwagandha extract 100 mg/kg, Piracetam 200 mg/kg, Mean ± SEM (n = 6)
Experimental: as §1, §2
Y-Maze model—The treatment was started (as per the groups mentioned) for animals from the day 1 and continues up to day 8. […] Briefly, each time animals were placed just inside arm B facing away from the center and allowed to move through apparatus for 8 min, while being monitored by tracking system. […] Each arm entry (defined as all four paws entering arm) was scored and recorded. Animals were returned to home cage and numbers of fecal pellets were counted in the Y maze and data was recorded. […]

male SD rats [3] = experiment: Morris Water Maze (MWM), scopolamine-induced amnesia; conditions: scopolamine 0.6 mg/kg i.p., Ashwagandha extract 100 mg/kg, Piracetam 200 mg/kg, mean
Experimental: as §1, §2
The MWM consists of a circular pool (180 cm in diameter and 60 cm in height) with a featureless inner surface. The circular pool was filled with water (23±1° C.) up to a height of 40 cm. The pool was divided into four quadrants of equal area. The escape platform was centered in one of the four quadrants. The day before the training experiments (day 6), animals were habituated to swim training for 60 s in the absence of the platform. The animals were treated with vehicle/extract/standard drug for 6 days. On day 7, 30 min after the administration of vehicle/extract/standard drug, scopolamine (0.6 mg/kg, i.p.) was injected. Training session was started 30 min after scopolamine administration. The rats were given four trial sessions each day for four consecutive days (day 7-10), with an inter-trial interval of 15 min, and the escape latencies were recorded. Once the rat located the platform, it was permitted to remain on it for 15 s to observe the vital clues. […] On day 11, the probe test was performed by removing the platform from the pool and a cut-off time of 60 s was kept for exploring. The time spent by the animal in the target quadrant was recorded. The higher value of the time spent in quadrant indicate better retention ability as the animal remembered the position of the platform.

male SD rats [4] = experiment: Cooks pole climbing test, conditioned avoidance, scopolamine-induced amnesia; conditions: scopolamine 0.6 mg/kg i.p., Ashwagandha extract 100 mg/kg, Piracetam 200 mg/kg, Mean ± SEM (n = 6)
Experimental: as §1, §2
Pole climbing test: Rats were trained in such a way that the animal had to climb the pole (shock free zone) within 30 s to avoid a shock. The shock was preceded by a buzzer that lasted for 15 s. The animals were trained to climb the pole at the sound of the buzzer (conditioned avoidance response). At particular intervals, 20 trials were given for each animal and average of the shock avoidance and mistakes were recorded. Trained animals were assayed by conditioned avoidance responses.

Compound: NC(=O)CN1CCCC1=O [Piracetam]
- Transfer Latency (male SD rats [1]): 7.00 ± 0.89 s
- Number of Arm entries (male SD rats [2]): 5.00 ± 0.89
- Retention Latency (male SD rats [2]): 2.07 ± 0.46 min
- Time to reach escape platform on training days (male SD rats [3]; MWM Day 7): 74.25 s
- Time to reach escape platform on training days (male SD rats [3]; MWM Day 8): 47.33 s
- Time to reach escape platform on training days (male SD rats [3]; MWM Day 9): 9.83 s
- Time to reach escape platform on training days (male SD rats [3]; MWM Day 10): 5.25 s
- Avoidance/Escape latency (male SD rats [4]): 6.00 ± 0.89 s
